Measurements: patent US12109266B2, “Modulating gabarap to modulate immunogenic cell death” (Dana-Farber Cancer Institute, Inc., priority 2020, dated 2024)
“Also recorded” adds a separate entry of the source.

Tests used:
[1] = test system: 5TGM1 multiple myeloma cell line; test: Apoptosis assay (Annexin-V/7-AAD flow cytometry); format: cell-based, murine
Method: Apoptosis was evaluated by Annexin-V/7-Aminoactinomycin D (7-AAD) staining and flow cytometric analysis using the PE Annexin V Apoptosis Detection Kit I (BD Biosciences), following the manufacturer's instructions.
Apoptosis was evaluated by Annexin-V/7-Aminoactinomycin D (7-AAD) staining and flow cytometric analysis using the PE Annexin V Apoptosis Detection Kit I (BD Biosciences).

[2] = test system: T cells; test: Analysis of T cell priming (co-culture of MM cells, DCs and T cells); format: cell-based, human
Method: DCs were generated from freshly isolated PBMCs as previously described. T cells were negatively selected from CD14− PBMCs using the Pan T cell Isolation Kit (Miltenyi Biotec) and frozen until immature DCs were generated. Either untreated or BTZ-treated MM cells were co-cultured with DCs and T cells for 5 days. T cells and DCs were also cultured in the absence of MM cells and in the presence of BTZ to assess the direct effects of drug on T cells and DCs. After 5 day co-culture, cells were treated with Dynabeads™ Human T-Activator CD3/CD28 (Cat. #11131D, ThermoFisher Scientific) 5 h before analysis, and with GolgiStop™ and GolgiPlug™ (Cat. #554724 and Cat. #555029, BD Biosciences) 3 h before analysis, following the manufacturer's instructions. Cells were then collected and T cell populations were analyzed by CyTOF analysis.
DCs were generated from healthy donors PBMCs as described above (“Generation of Mo-DCs” section). T cells were negatively selected from CD14-PBMCs from the same donors using the Pan T cell Isolation Kit (Miltenyi Biotec) and frozen until immature DCs were generated. Either untreated or BTZ-treated multiple myeloma cells were co-cultured with DCs and T cells for 5 days. T cells and DCs were similarly cultured in the absence of multiple myeloma cells and in the presence of BTZ. Before analysis, cells were treated with Dynabeads™ Human T-Activator CD3/CD28 (#11131D, ThermoFisher Scientific), and with GolgiStop™ and GolgiPlug™ (#554724 and #555029, BD Biosciences). T cell populations were analyzed using 10 color flow-cytometry with the following Abs: CD3-BV605 (#317322), CD8-FITC (#344704), CD4-PerCP/Cyanine5.5 (#317428), CD45RO-APC (#304210), CCR7-PE (#353204), CD69-PE/Cyanine7 (#310912), and IL-2-BV785 (#500348), IFNγ-BV421 (#502532) (BioLegend); and PD1-Super Bright 702 (#67-998-582). LIVE/DEAD™ Fixable Aqua dead Cell Stain(#L34966) (ThermoFisher Scientific) was also added to discriminate dead cells. Intracellular staining for IL-2 and IFNγ was performed using the Fixation/Permeabilization Solution Kit (BD Biosciences).
When T cell experiments were performed using patient multiple myeloma cells, the entire population of autologous BMMCs was cultured in presence and absence of BTZ and analyzed after 5 days. Data from experiments performed using multiple myeloma cell lines were analyzed with a bioinformatic semiautomated pipeline (Perez et al. (2020) Blood; 136(2):199-209). Briefly, flow cytometry files were entered in a custom R script which includes different bioinformatic algorithms and has been designed to reduce the impact of technical and instrumental differences, minimize the variability of manual analysis, and reveal full cellular diversity based on automatic semi-supervised clustering. Data from primary MM patients were manually analyzed by using Infinicyt 2.0 (Cytognos, Salamanca, Spain).

[3] = test system: naive T cells; test: Analysis of naive T cell proliferation; format: cell-based, human; conditions: 5 day co-culture with BTZ-treated AMO1 or NCI-H929 cells and DCs
Method: DCs were generated from healthy donors PBMCs as described above (“Generation of Mo-DCs” section). Naïve T cells were negatively selected from CD14-PBMCs from the same donors using the Naive Pan T Cell Isolation Kit (Miltenyi Biotec) and frozen. When DCs were generated, either untreated or BTZ-treated multiple myeloma cells were co-cultured with DCs and naïve T cells labeled with CellTrace™ Violet Cell Proliferation Kit (ThermoFisher Scientific) for 5 days. Naïve T cells were also cultured in the absence of multiple myeloma cells and in the presence of phytohemagglutinin (PHA) (20 ug/ml) as positive control. Before analysis, cells were stained with: CD8-FITC (#344704), CD4-PerCP/Cyanine5.5 (#317428) (BioLegend); and LIVE/DEAD™ Fixable Aqua dead Cell Stain (#L34966) (ThermoFisher Scientific). Proliferating CD4 and CD8 T cell subsets were then analyzed using the FlowJo software (Becton, Dickinson & Company).

[4] = test system: 5TGM1 tumors; test: RNA-seq analysis from mouse tumors; format: in vivo; conditions: immunocompetent mice
Method: Tumors growing from both 5TGM1 WT or calrKO cells in C57BL/KaLwRijHsd mice treated with either PBS or BTZ (3/group) were harvested and used to extract RNA using the RNeasy® kit (Qiagen). After passing quality control, RNAseq was performed using Illumina NextSeq 500 Single-End 75 bp (SE75) and analyzed following the VIPER NGS analysis pipeline (Cornwell et al. (2018) BMC Bioinform. 19:135) comparing BTZ-treated mice vs PBS in each experimental setting. Listing of differentially expressed genes (DEGs) were applied to gene set enrichment analysis (GSEA) and Cytoscape (Bindea et al. (2009) Bioinform. 25:1091-1093; Bindea et al. (2013) Bioinform. 29:661-663) software to reveal biological pathways modulated by BTZ.
Tumors growing from both 5TGM1 WT or Calr^KO cells in C57BL/KaLwRijHsd mice treated with either PBS or BTZ (3/group) were harvested and used to extract RNA using the RNeasy kit (Qiagen). After passing quality control, RNAseq was performed using Illumina NextSeq 500 Single-End 75 bp (SE75) and analyzed following the VIPER NGS analysis pipeline (Cornwell et al. (2018) BMC Bioinformatics; 19(1):135), comparing BTZ-treated mice vs PBS in each experimental setting. […] Analysis of expression of human orthologs of these 90 genes in MM patients and correlation with patient clinical outcome was then analyzed as detailed below. […]

**Q.** For CC(C)C[C@H](NC(=O)[C@H](Cc1ccccc1)NC(=O)c1cnccn1)B(O)O [BTZ, bortezomib], which “multiple myeloma cell death, as measured by phosphatidylserine exposure” value ([1]; 5TGM1, BTZ 1-10 nM, 16 h) is on record?
**A.** induced multiple myeloma cell death in a dose-dependent manner

**Q.** What about the “apoptosis (annexin-V-positive cells)” value ([1]; 5TGM1 WT vs Calr^KO clones, BTZ 7.5 nM) of the same compound?
**A.** triggered apoptosis in both 5TGM1 WT cells and the Calr^KO clones at the same extent

**Q.** What about the “T cell subsets (CD4+ EM, total CD8+, CD8+ EM)” value ([2]; BTZ-treated AMO1 STING^KO vs WT) of the same compound?
**A.** no significant increase of CD4+EM; total CD8+; and CD8+EM cells

**Q.** What about the “T cell subsets (CD4+ EM, total CD8+, CD8+ EM, CD8+ TEMRA)” value ([2]; BTZ-treated AMO1 or H929 cells with DCs and T cells, 5 days) of the same compound?
**A.** significant increase of CD4+ effector memory (EM); total CD8+; CD8+EM and CD8+ terminally differentiated EM (TEMRA) cells

**Q.** What about the “T cell subsets / T cell maturation” value ([2]; DCs and T cells with BTZ 5 nM in the absence of MM cells, 5 days) of the same compound?
**A.** not observed by treating DCs and T cells with BTZ in the absence of multiple myeloma cells; also recorded: does not induce T cell maturation

**Q.** And the “T cell phenotype / priming (CyTOF)” value ([2]; DCs primed by BTZ-treated AMO1 GABARAP^KO)?
**A.** led to T cell exhaustion; also recorded: GABARAP^KO blocks T cell priming by DCs after BTZ treatment

**Q.** What about the “CD4+ T cell phenotype (CyTOF)” value ([2]; DCs primed by BTZ-treated AMO1 WT) of the same compound?
**A.** switched CD4+ T cells towards an effector memory function

**Q.** What about the “CD4+ and CD8+ T cell populations” value ([2]; autologous BMMCs from MM patients, BTZ 5 nM, 5 days) of the same compound?
**A.** confirmed the phenotypic changes in both CD4+ and CD8+ T cell populations

**Q.** And the “proliferation of CD4+ and CD8+ naive T cells” value [3]?
**A.** increased proliferation of both CD4+ and CD8+ naïve T cells; also recorded: promotes proliferation of CD4+ and CD8+ naïve T cells

**Q.** What about the “transcriptional changes in tumors (RNA-seq)” value ([4]; 5TGM1 Calr^KO tumors) of the same compound?
**A.** decreased this effect

**Q.** And the “transcriptional changes in tumors (RNA-seq)” value ([4]; 5TGM1 WT tumors, two BTZ treatments 0.5 mg/kg)?
**A.** switched on a transcriptional program that is linked to the activation of an immune response; also recorded: consistent with activation of an immune response
